Test results: patent US20220243177A1, “METHODS OF CULTURING QUIESCENT HEMATOPOIETIC STEM CELLS AND TREATMENT METHODS” (priority 2019, published 2022)

Experiments:
[1] = system: MMP-low and MMP-high HSCs; experiment: Autophagic vacuole formation / lysosomal localization of mitochondria (confocal immunofluorescence); type: cell-based, mouse; set-up: number of autolysosomes (LC3 co-localization with LAMP1) / co-localization of TOM20 with LAMP1 in MMP-low and MMP-high HSCs: dose or concentration left out as unconfirmed
Text: Immunofluorescence Staining, Imaging, and Analysis—Super Resolution Confocal Microscopy: Images were acquired with a Zeiss LSM 880 confocal microscope equipped with Airyscan Super Resolution Imaging module, using a 100×/1.46 Alpha Plan Apochromat objective lens (Zeiss MicroImaging, Jena, Germany) with “optimal” (Nyquist) XY scaling. Z stacks through the entire cell were acquired at an […] (at least 20 optical sections) using a pixel dwell time of >50 microseconds and field dimensions of […] (20 MMP-low and 20 MMP-high HSCs analyzed). This was followed by Airyscan image processing (set at auto but rarely over 6.2) and analyses using ZEN image acquisition and processing software (ZEN blue/black). Maximum intensity projections shown in the figures were also obtained using ZEN Blue software.
Lysosomal Localization of Mitochondria. FACS-sorted MMP-low and MMP-high HSCs (LSKCD150^+CD48^-MMP-low/-high) were treated with DMSO control or leupeptin […] for 4 hours. HSCs were then fixed and imaged for TOM20 (mitochondria) and LAMP1 (lysosomes).
Autophagic Vacuole Formation. Accumulation of autophagy substrates, Translocase of outer membrane 20 (TOM20) or Map11c3a (LC3), was determined in the presence of amino acid-containing (DMSO) or -starved amino acid-depleted media, v-ATPase inhibitor concanamycin A (ConA 40nM), inhibitor of autophagosome-autolysosome fusion chloroquine (CQ, […]), or protease inhibitor, leupeptin […] following guidelines outlined for study of autophagy (Klionsky et al., “Guidelines for the Use and Interpretation of Assays for Monitoring Autophagy (3rd Edition),” Autophagy 12(1): 1-222 (2016) and Martinez-Lopez et al., “Autophagy Proteins Regulate ERK Phosphorylation,” Nat. Commun. 4: 2799 (2013), which are hereby incorporated by reference in their entirety). In brief, FACS-sorted
MMP-low and MMP- high HSCs were cultured in the presence or absence of indicated inhibitors for 4, 5, or 18 hours following which cells were subjected to immunofluorescence assays for TOM20, LC3 and/or LAMP1 or LAMP2 as described above. Analyses were performed to quantify the turnover of indicated protein in lysosomes by evaluating the accumulation of TOM20 or LC3 in the presence versus absence of an inhibitor. TOM20 and LC3 flux were determined by subtracting the colocalized value of inhibitor-untreated TOM20 or LC3 with LAMP1 from corresponding inhibitor-treated values. Images were captured using a Zeiss LSM880 Airyscan confocal microscope using 100 X objectives (Leica), and percentage colocalization was calculated using the JACoP plugin (NIH ImageJ).
Mitochondrial and Lysosome Morphology: Freshly isolated HSCs were analyzed for mitochondrial morphology. Each individual HSC (150 total) was analyzed by using Arivis Vision 4D software and classified as either fragmented or not fragmented in accordance with number of surfaces. Cells that fulfilled the definition of ‘fragmented’ contained 3 or more individual mitochondrial surfaces (Kask et al., “Fluorescence-intensity Distribution Analysis and Its Application in Biomolecular Detection Technology,” Proc. Natl. Acad. Sci. USA 96(24): 13756-13761 (1999), which is hereby incorporated by reference in its entirety). Lysosomes' fluorescence intensity or area profiling was calculated using ImageJ software enabling the detection of fluorescently labeled […] boundaries (lysosomal marker LAMP1), as reflected by sharp increases or decreases in fluorescence intensity. Channels displaying fluorescence for either mitochondria or lysosomes were thresholded with the IsoData option to delimit the boundaries of mitochondrial networks and lysosome morphology. The resulting outlines were measured using the analyzed particles option to determine the size of distinct particles representing mitochondrial networks or lysosomes. More than 50 cells/condition/experiment were analyzed for lysosomes. […]

[2] = system: MMP-low and MMP-high HSCs; experiment: Glucose uptake assay (2NBDG); type: cell-based, mouse; settings: STF-31 (10, 20 μM), 18 hours
Method: Glucose Uptake Assay: For measurement of glucose uptake, freshly FACS-purified MMP-low and MMP-high HSCs (at least 2,000 cells pooled in average from 8 mice) were cultured immediately in […] of glucose, glutamine, pyruvate free medium containing 100 or 200 μM 2-(n-(7-nitrobenz-2-oxa-1,3-diazol-4-yl amino)-2-deoxyglucose (2-NBD-Glucose, 2NBDG) for 2 hours. Cells were then washed multiple times in PBS, re-suspended in PBS containing 1 μg/ml DAPI, and analyzed by flow cytometry for 2-NBD glucose fluorescence in the FITC channel. In some experiments cells were cultured in StemSpan medium (StemCell Technology) supplemented with SCF (100 ng/ml) and TPO (20 ng/ml), treated with or without STF-31 ([…]), ConA (25, 50 nM), dimethyl alpha ketoglutarate (MOG, 1 mM), methyl pyruvate (MP, 1 mM) or DMSO, incubated at 37° C. in a humidified atmosphere with 5% CO2 for 6 or 18 hours before removing culture medium from each well, washing extensively and adding […] of glucose, glutamine, pyruvate free medium containing […] of 2 NBDG for 2 hours before washing cells multiple times in PBS and analyzing by flow cytometry. Quantification of 2NBDG uptake was measured by the geometric mean fluorescence intensity (“MFI”) as well as % of 2NBDG^+ cells.

[3] = system: HSCs (LSK CD150+CD48-); experiment: Mitochondrial membrane potential (TMRE) by flow cytometry; type: cell-based, mouse
Method: To measure mitochondrial membrane potential (“MMP”), Tetramethylrhodamine ethyl ester perchlorate (“TMRE”, 100 nM), which specifically accumulates within the mitochondrial matrix of live cells, was used in accordance with the manufacturer's instructions. In brief, cells were stained with the probe at 37° C. for 15 minutes post antibody staining, followed by washing and flow cytometry analysis or FACS purification. Probe responsiveness to MMP changes were tested using controls carbonyl cyanide 3-chlorophenylhydrazone (“CCCP”) and oligomycin, which decreased and increased fluorescence of TMRE respectively. MMP-low and MMP-high thresholds were determined as the lowest and highest 25% TMRE intensity HSCs. Reactive oxygen species (“ROS”) were measured using chloromethyl-dichlorodihydrofluorescein diacetate (“CM-H2DCFDA”) fluorescent probe as described in Rimmele et al., “Mitochondrial Metabolism in Hematopoietic Stem Cells Requires Functional FOXO3,”EMBO Rep. 16: 1164-1176 (2015); Yalcin et al., “ROS-Mediated Amplification of AKT/mTOR Signalling Pathway Leads to Myeloproliferative Syndrome in Foxo3(-/-) Mice,” EMBO J. 29: 4118-4131 (2010); and Yalcin et al., “Foxo3 Is Essential for the Regulation of Ataxia Telangiectasia Mutated and Oxidative Stress-mediated Homeostasis of Hematopoietic Stem Cells,” J. Biol. Chem. 283: 25692-25705 (2008), which are hereby incorporated by reference in their entirety. Flow cytometry acquisition was performed on the BD LSRII, while cell sorting was performed on the BD Influx. All flow cytometry analyses and quantification were done using FlowJo 10 (Treestar).

[4] = system: MMP-low and MMP-high LT-HSCs transplanted into lethally irradiated mice; type: in vivo
Method: Competitive In Vivo Long-Term Reconstitution Assay: MMP-low and MMP-high HSCs (LSKCD150^+CD48^−, LT-HSC; MMP^low/high) were FACS purified from CD45.1 mice and transplanted at the indicated dose of test cells with 2×10^5 CD45.2 bone marrow cells into lethally irradiated CD45.2 recipients (12 Gy as a split dose, 6.5 and 5.5 Gy, 4 hours apart). Donor (CD45.1) and recipient (CD45.2) mice were 8-12 weeks old. HSC frequency was determined by the limiting dilution assay (Hu & Smith, “ELDA: Extreme Limiting Dilution Analysis for Comparing Depleted and Enriched Populations in Stem Cell and Other Assays,” J. Immunol. Methods 347:7 0-78 (2009), which is hereby incorporated by reference in its entirety) based on the number of mice with […] reconstitution (CD45.1) at 16 weeks.
To assay the effect of glycolytic inhibition of HSCs in a competitive in vivo long-term reconstitution assay: FACS-sorted MMP-low and MMP-high LT-HSCs (CD45.1) were mixed with 2×10^5 CD45.2 total bone marrow cells and injected into lethally irradiated CD45.2 recipients. After 2 days mice were divided into four groups, MMP-low and MMP-high groups treated with PBS or 2-Deoxy-Glucose (2-DG, 1000 mg/kg) every other day for 30 days. Reconstitution of donor CD45.1 cells and lineage distribution were monitored monthly by staining blood cells with antibodies against CD45.1, CD4, CD8 (T), B220 (B), CD11b and Gr-1 (myeloid) cells. For secondary transplantations, 2×10^6 BM cells from primary recipients were transplanted into lethally irradiated secondary recipients. Donor CD45.1 cells contribution and lineage distribution were tracked from the peripheral blood by flow cytometry.

[5] = system: HSCs of treated mice; experiment: In vivo glycolytic inhibition; set-up: species or system mouse
Method: In vivo Glycolytic Inhibition. To assess the effect of inhibition of glycolysis on MMP in HSCs, mice received intraperitoneal injections of either PBS or 2-DG 750 mg/kg every other day for 6 days after which total BM cells […] cells were isolated and MMP analyzed by flow cytometry in HSCs.

[6] = system: MMP-low and MMP-high HSCs; experiment: LT-HSCs maintenance assay (viability, DAPI exclusion); type: cell-based
Method: LT-HSCs Maintenance Assay: FACS-purified MMP-low and MMP-high HSCs cells were cultured in serum-free Stemspan medium supplemented with SCF (10 ng/mL) and TPO (20 ng/mL), cultured as single or 1,000 yells or 2,000 cells/well, and treated with ConA (10-100 nM), or 2-Deoxy-Glucose (2-DG; 5-60 mM), α-Cyano-4-hydroxycinnamic acid (CHC, 10 mM), or 0.5% DMSO, incubated at 37° C. for the indicated time. Cells were then washed twice in PBS, re-suspended in PBS containing 1 μg/ml DAPI, and analyzed by flow cytometry after DAPI exclusion.

[7] = recipients treated with 2-DG 1,000 mg/kg every other day for 30 days, after 4 months

Structure (SMILES): CC(=O)N[C@@H](CC(C)C)C(=O)N[C@@H](CC(C)C)C(=O)N[C@H](C=O)CCCNC(=N)N [leupeptin]
- co-localization of TOM20 with LAMP1 in MMP-low and MMP-high HSCs ([1]; 4 h): enhanced similarly
- increase in LC3-positive puncta, MMP-high HSCs ([1]; 4 h): 3.6 fold
- increase in LC3-positive puncta, MMP-low HSCs ([1]; 4 h): 1.6 fold
- number of autolysosomes (LC3 co-localization with LAMP1) ([1]; 4 h): greater number of autolysosomes
- autolysosomal degradation (colocalization of LAMP1 with LC3) ([1]; ConA 40 nM, leupeptin 100 mM, chloroquine 40 mM, 18 hours, MMP-low and MMP-high HSCs): dramatically prevented autolysosomal degradation
- size of lysosomes in HSCs ([1]; leupeptin, more evident in MMP-high HSCs): further increased the size of lysosomes

Structure (SMILES): CC(C)(C)c1ccc(S(=O)(=O)NCc2ccc(C(=O)Nc3cccnc3)cc2)cc1 [Glut1 inhibitor, STF-31]
- glucose uptake in MMP-high HSCs [2]: decreased glucose uptake

Structure (SMILES): COc1ccc(CCN(C)CCCC(C#N)(c2ccc(OC)c(OC)c2)C(C)C)cc1OC (stereo not shown) [Verapamil]
- TMRE levels or proportion of MMP-low HSCs ([3]; Verapamil 25 μM, 50 μM, MRP inhibition): did not modulate significantly

Structure (SMILES): CC[C@H]1/C=C/C=C/C[C@@H](C)[C@H](O)[C@@](C)(O)C(=O)[C@@H](C)[C@H](O)[C@@H](C)C(=O)[C@@H](C)[C@H](O)[C@@H](C)/C=C/C(=O)O[C@@H]2[C@H](C)[C@H](CC1)O[C@]1(CC[C@H](C)[C@H](C[C@@H](C)O)O1)[C@H]2C [oligomycin]
- fluorescence of TMRE (probe responsiveness control) [3]: increased

Structure (SMILES): O=CC[C@@H](O)[C@H](O)[C@H](O)CO [2-DG, 2-Deoxy D-Glucose]
- lineage output in recipients of MMP-high HSCs ([4]; 2-DG-treated recipients): balanced production of blood
- systemic effect in the blood of transplanted mice ([4]; long-term (up to 16 weeks), normal diet): no systemic effect was detected
- enhancement of in vivo competitive repopulation ability of MMP-high HSCs [4, 7]: over 70 fold
- in vivo competitive repopulation ability of MMP-low HSCs [4, 7]: only subtle effects
- cellular viability after in vivo treatment ([5]; 2-DG 750 mg/kg every other day for 6 days): did not have much of an effect
- overall MMP levels in long-term HSCs ([5]; 2-DG 750 mg/kg every other day for 6 days, intraperitoneal): slightly but significantly reduced
- glucose uptake in HSCs with the highest MMP levels ([5]; in vivo 2-DG, 6 days): reduced glucose uptake
- effect on MMP-low HSCs (viability) ([6]; 2-DG 50 mM, 12 hours): did not have much of an effect
- death of MMP-high HSCs after 24 h ([6]; 2-DG 50 mM, 24 h, not in MMP-low): even more pronounced
- MMP-high HSCs died ([6]; 2-DG 50 mM, within 12 hours): over 60%

Structure (SMILES): N#CC(=Cc1ccc(O)cc1)C(=O)O [CHC, a-cyano-4-hydroxycinnamate]
- decrease of survival in MMP-high HSCs ([6]; 10 mM CHC, 6 hours): 80%
- effect on survival of MMP-low HSCs ([6]; 10 mM CHC, 6 hours): negligible effect

Structure (SMILES): N#CC(C#N)=NNc1cccc(Cl)c1 [CCCP, carbonyl cyanide 3-chlorophenylhydrazone]
- fluorescence of TMRE (probe responsiveness control) [3]: decreased
